This note sets out measurements from patent US20260174875A1 (Novo Nordisk A/S, priority 2023, published 2026).

Where two headings read alike, the source gives them in different places. Numbered stars: 1 amine (or outer) side, 2 acyl side, 3 side chain; on linkers, the order of the positions; unused ones are H or OH. Square brackets hold non-standard residues; d marks the D form. Side chains are listed from the residue outwards. * marks the point of attachment. C20 diacid = O=C(O)CCCCCCCCCCCCCCCCCCC(=O)*; C18 diacid = O=C(O)CCCCCCCCCCCCCCCCC(=O)*; C16 diacid = O=C(O)CCCCCCCCCCCCCCC(=O)*; γGlu = O=C(O)[C@H](CCC(=O)[*:2])N[*:1]; AEEA = NCCOCCOCC(=O)O; Aib = CC(C)(N)C(=O)O

Holding throughout (type): cell-based
Assay [1] has as its target T1, human GIP receptor (hGIPR) (Homo sapiens, UniProt P48546).
T1 construct: expressed in transfected cells
T1 sequence (P48546 22-466): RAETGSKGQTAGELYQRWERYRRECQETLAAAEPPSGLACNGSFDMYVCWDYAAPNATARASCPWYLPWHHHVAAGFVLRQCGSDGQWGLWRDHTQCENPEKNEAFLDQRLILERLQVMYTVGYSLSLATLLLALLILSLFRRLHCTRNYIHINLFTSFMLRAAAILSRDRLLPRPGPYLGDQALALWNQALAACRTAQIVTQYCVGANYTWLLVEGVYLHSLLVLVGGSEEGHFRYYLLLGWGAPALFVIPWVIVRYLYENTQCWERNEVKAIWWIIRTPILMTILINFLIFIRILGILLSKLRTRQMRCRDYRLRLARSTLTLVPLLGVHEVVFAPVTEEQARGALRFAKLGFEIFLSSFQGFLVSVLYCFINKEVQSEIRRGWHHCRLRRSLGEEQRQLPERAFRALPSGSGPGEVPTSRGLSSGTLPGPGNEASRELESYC
The assay can be described thus: GIP receptor assay, method A (CRE-luciferase reporter, BHK cells). The procedure, abridged: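 BHK cells co-expressing hGIPR and a CRE-luciferase reporter, plated 21-23 h before assay, stimulated 3 h at 37 °C with compounds (7-point 10-fold titration, duplicates) in ovalbumin-containing DMEM buffer with or without 1% HSA final. Luminescence read; EC50 (pM) from four-parameter logistic fit with shared Hill slope.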
For orientation: Reporter assays use an easily measured gene product as a stand-in for the process of interest.

Assay [2] has as its target T2, human amylin receptor (hAMYR3) (Homo sapiens, UniProt O60896+P30988).
T2 construct: host or cells: BHK cells (Hollex-1 line expressing hCTR(a) and CRE-Luc), further transfected with human RAMP3
The assay can be described thus: Amylin receptor assay, method A (CRE-luciferase reporter, BHK cells).

Assay [3] addresses T3, human GLP-1 receptor (hGLP-1R) (Homo sapiens, UniProt P43220).
T3 construct: expressed in transfected cells
The assay is described as follows: GLP-1 receptor assay, method A (CRE-luciferase reporter, BHK cells). The procedure, abridged:
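BHK cells expressing hGLP-1R with CRE-luciferase reporter, stimulated 3 h at 37 °C, 5% CO2, in phenol-red-free DMEM with 10 mM HEPES, 1% ovalbumin, 0.1% Pluronic F-68, without or with 1% (w/v) HSA. Receptor activation read as luminescence after 30 min with steadylite Plus.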

Setting [4] is: hGIPR Potency, 1% HSA, EC50, method A, in the presence of 1% HSA.
Setting [5] is: method A, absence of HSA, read-out: hGIPR Potency, no HSA, EC50.
The mark [6] stands for this setting: hAMYR3 Potency, 1% HSA, EC50, method A, in the presence of 1% HSA.
The mark [7] stands for this setting: method A, absence of HSA, read-out: hAMYR3 Potency, no HSA, EC50.
The mark [8] stands for this setting: hGLP-1R Potency, 1% HSA, EC50, method A, in the presence of 1% HSA.
The mark [9] stands for this setting: method A, absence of HSA, read-out: hGLP-1R Potency, no HSA, EC50.

T3 sequence (P43220 24-463): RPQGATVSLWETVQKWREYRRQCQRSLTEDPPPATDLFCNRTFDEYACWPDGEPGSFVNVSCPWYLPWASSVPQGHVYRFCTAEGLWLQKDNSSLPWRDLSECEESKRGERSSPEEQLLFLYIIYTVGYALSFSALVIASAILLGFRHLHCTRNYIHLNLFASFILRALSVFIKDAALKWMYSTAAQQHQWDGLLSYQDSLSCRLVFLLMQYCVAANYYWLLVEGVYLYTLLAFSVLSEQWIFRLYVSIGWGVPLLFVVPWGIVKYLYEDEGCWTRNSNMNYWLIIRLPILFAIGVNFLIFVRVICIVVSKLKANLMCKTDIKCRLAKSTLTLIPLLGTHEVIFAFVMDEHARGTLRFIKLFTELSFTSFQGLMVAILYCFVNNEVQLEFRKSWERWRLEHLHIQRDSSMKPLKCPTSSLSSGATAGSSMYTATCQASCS
T2 sequence (P30988 25-474): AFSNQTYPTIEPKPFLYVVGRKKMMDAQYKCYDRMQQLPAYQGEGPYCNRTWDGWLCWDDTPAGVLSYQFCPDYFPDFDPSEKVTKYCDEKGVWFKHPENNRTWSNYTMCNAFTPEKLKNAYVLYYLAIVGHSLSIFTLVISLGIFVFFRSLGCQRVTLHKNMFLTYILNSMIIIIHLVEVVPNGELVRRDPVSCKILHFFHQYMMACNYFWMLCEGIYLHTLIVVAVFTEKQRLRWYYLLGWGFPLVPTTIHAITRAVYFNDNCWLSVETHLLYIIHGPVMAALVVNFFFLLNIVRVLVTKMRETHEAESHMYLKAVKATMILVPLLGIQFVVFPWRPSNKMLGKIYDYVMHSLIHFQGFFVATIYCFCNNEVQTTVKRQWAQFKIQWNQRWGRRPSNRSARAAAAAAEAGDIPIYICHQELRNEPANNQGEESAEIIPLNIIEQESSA
T2 sequence (O60896 24-148): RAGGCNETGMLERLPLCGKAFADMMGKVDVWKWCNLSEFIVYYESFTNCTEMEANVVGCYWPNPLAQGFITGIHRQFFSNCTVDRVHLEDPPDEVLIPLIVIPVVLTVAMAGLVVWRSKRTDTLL

What is called EC50 is the concentration that produces a half-maximal response. On to “Y[Aib]EGTFTSDYSILLEEQAAREFIEWLLAGGPSSGAGQAPGQAPGASHLSTAQTQRLSAELHQLK([AEEA-AEEA-γGlu-C18 diacid])TLPRTETGSGSP-NH2 [Compound 102]”, for which the EC50 in assay [1] (setting [4]) worked out at 0.0122 nM; in assay [1] (setting [5]) it was 0.00224 nM; in assay [2] (setting [6]) it was 0.134 nM; in assay [2] (setting [7]) it was 0.00326 nM; in assay [3] (setting [8]), 0.047 nM; in assay [3] (setting [9]), 0.011 nM.

Turning to “Y[Aib]EGTFTSDYSILLEEQAAREFIEWLLAGGPSSGAGQAPGQAPGASHLSTAQTQRLSAELHRLATLPK([AEEA-AEEA-γGlu-C20 diacid])TETGSGSP-NH2 [Compound 76]”, the EC50 in assay [1] (setting [4]) was 0.0111 nM; in assay [1] (setting [5]) it was 0.00282 nM; in assay [2] (setting [6]) it was 0.43 nM; in assay [2] (setting [7]) it was 0.00311 nM; in assay [3] (setting [8]), 0.0636 nM; in assay [3] (setting [9]), 0.0199 nM.

Take “Y[Aib]EGTFTSDYSILLEEQAAREFIEWLLAGGPSSGAGQAPGQAPGASHLSTAQTQRLSAELHRLK([AEEA-AEEA-AEEA-γGlu-C18 diacid])TLPRTETGSGSP-NH2 [Compound 111]”: the EC50 is 0.0122 nM in assay [1] (setting [4]); 0.00366 nM in assay [1] (setting [5]); 0.0664 nM in assay [2] (setting [6]); 0.00333 nM in assay [2] (setting [7]); 0.0348 nM in assay [3] (setting [8]); 0.0159 nM in assay [3] (setting [9]).

For the substance “Y[Aib]EGTFTSDYSILLEEQAAREFIEWLLAGGPSSGAGQAPGQAPGASK([AEEA-AEEA-γGlu-C18 diacid])LSTAQTQRLSAELHRLATLPRTETGSGSP-NH2 [Compound 54]”, the EC50 in assay [1] (hGIPR Potency, no HSA, EC50, method A, absence of HSA) came out at 0.00556 nM; in assay [2] (hAMYR3 Potency, no HSA, EC50, method A, absence of HSA), 0.00302 nM; in assay [3] (hGLP-1R Potency, no HSA, EC50, method A, absence of HSA) it was 0.0288 nM.

Turning to “Y[Aib]EGTFTSDYSILLEEQAAREFIEWLLAGGPSSGAGQAPGQAPLASHLSTAQTARLSAELHK([AEEA-AEEA-γGlu-C18 diacid])LATLPRTETGSGSP-NH2 [Compound 98]”, the EC50 came to 0.0112 nM in assay [1] (setting [4]); 0.00258 nM in assay [1] (setting [5]); 0.108 nM in assay [2] (setting [6]); 0.0023 nM in assay [2] (setting [7]); 0.0431 nM in assay [3] (setting [8]); 0.0133 nM in assay [3] (setting [9]).

Take “Y[Aib]EGTFTSDYSILLEEQAAREFIEWLLAGGPSSGALAQTLAQTLASHLSTAQTQRLSAELHK([AEEA-AEEA-γGlu-C16 diacid])LATLPRTETGSGSP-NH2 [Compound 59]”: the EC50 was 0.0272 nM in assay [1] (setting [4]); 0.00772 nM in assay [1] (setting [5]); 0.0242 nM in assay [2] (setting [6]); 0.00385 nM in assay [2] (setting [7]); 0.0397 nM in assay [3] (setting [8]); 0.0506 nM in assay [3] (setting [9]).

Take “Y[Aib]EGTFTSDYSILLEEQAAREFIEWLLAGGPSSGALAQTLAQTLASHLSTAQTQRLSAELHK([AEEA-AEEA-γGlu-C18 diacid])LATLPRTETGSGSP-NH2 [Compound 48]”: the EC50 is 0.054 nM in assay [1] (setting [4]); 0.00702 nM in assay [1] (setting [5]); 0.0785 nM in assay [2] (setting [6]); 0.0032 nM in assay [2] (setting [7]); 0.105 nM in assay [3] (setting [8]); 0.0648 nM in assay [3] (setting [9]).

For “Y[Aib]EGTFTSDYSILLEEQAAREFIEWLLAGGPSSGALAQTLAQTLASHLSTAQTQRLSAELHK([AEEA-AEEA-γGlu-C20 diacid])LATLPRTETGSGSP-NH2 [Compound 60]”, the EC50 in assay [1] (setting [4]) worked out at 0.0283 nM; in assay [1] (setting [5]), 0.00606 nM; in assay [2] (setting [6]), 0.191 nM; in assay [2] (setting [7]), 0.00385 nM; in assay [3] (setting [8]), 0.173 nM; in assay [3] (setting [9]), 0.0944 nM.

As for “Y[Aib]EGTFTSDYSILLEEQAAREFIEWLLAGGPSSGALQAPGQAPLASHLSTAQTARLSAELHK([AEEA-AEEA-γGlu-C18 diacid])LATLPRTETGSGSP-NH2 [Compound 105]”, the EC50 is 0.0125 nM in assay [1] (setting [4]); 0.00308 nM in assay [1] (setting [5]); 0.113 nM in assay [2] (setting [6]); 0.00288 nM in assay [2] (setting [7]); 0.0489 nM in assay [3] (setting [8]); 0.0126 nM in assay [3] (setting [9]).

As to “Y[Aib]EGTFTSDYSILLEEQAAREFIEWLLAGGPSSGAPPPSGGGEASHLSTAQTQRLSAELHK([AEEA-AEEA-γGlu-C18 diacid])LATLPRTETGSGSP-NH2 [Compound 49]”, the EC50 amounted to 0.0167 nM in assay [1] (setting [4]); 0.00436 nM in assay [1] (setting [5]); 0.106 nM in assay [2] (setting [6]); 0.00185 nM in assay [2] (setting [7]); 0.11 nM in assay [3] (setting [8]); 0.0333 nM in assay [3] (setting [9]).
